Results taken from patent US12029739B2, “SHP2 inhibitor and use thereof” (KANAPH THERAPEUTICS INC., priority 2021, dated 2024).
Read-outs that look alike come from different tables or passages of the source.

What was measured:
SHP2 (full length) = target: T1, SHP2 (full length) (Homo sapiens, UniProt Q06124); test: Phosphatase assay (PTPase assay) with DiFMUP substrate; format: biochemical; settings: SHP2 activated with SHP2 activating peptide; DiFMUP 80 μM, 2 hours; fluorescence; read-out: IC50 (PTPase aS say)
T1 construct: SHP2 (full length, diluted to 100 pM final concentration in reaction buffer, BPS bioscience, US); purchased BPS bioscience, US
T1 sequence (Q06124 1-593): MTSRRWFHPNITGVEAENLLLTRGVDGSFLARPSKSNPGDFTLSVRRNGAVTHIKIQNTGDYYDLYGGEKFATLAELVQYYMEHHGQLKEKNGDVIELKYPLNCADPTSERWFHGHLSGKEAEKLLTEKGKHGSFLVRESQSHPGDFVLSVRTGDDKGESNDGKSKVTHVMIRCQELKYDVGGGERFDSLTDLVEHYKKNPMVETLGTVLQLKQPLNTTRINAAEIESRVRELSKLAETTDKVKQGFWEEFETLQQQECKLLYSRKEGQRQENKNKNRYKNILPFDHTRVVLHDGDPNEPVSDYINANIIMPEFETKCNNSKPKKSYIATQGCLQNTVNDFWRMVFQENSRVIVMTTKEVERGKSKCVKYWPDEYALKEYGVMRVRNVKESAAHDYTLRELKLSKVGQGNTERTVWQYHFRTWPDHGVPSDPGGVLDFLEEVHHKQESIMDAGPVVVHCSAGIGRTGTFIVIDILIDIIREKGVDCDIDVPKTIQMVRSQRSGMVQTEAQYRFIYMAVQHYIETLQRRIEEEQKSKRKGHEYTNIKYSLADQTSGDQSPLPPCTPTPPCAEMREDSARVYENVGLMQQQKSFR

[1] = test system: phospho-ERK in MIA PaCa2 or H358 cells; test: Phospho-ERK assay (AlphaLisa); format: cell-based; settings: MIA PaCa2 or H358 cells, compound incubated 1.5 hours, read-out: IC50 (p-ERK)

Row | IC50 (SHP2 (full length)) [nM] | IC50 ([1]; 1.5 h) [nM] | SMILES | IC50 [1] [nM]
1 | 3 to 100 | 45 to 1500 | C[C@@H]1OCC2(CCN(c3cnc(Sc4ccc5ncn(CCCN(C)C)c(=O)c5c4Cl)cn3)CC2)[C@@H]1N [Example 68, 6-((5-((3S,4S)-4-amino-3-methyl-2-oxa-8-azaspiro[4.5]decan-8-yl)pyrazin-2-yl)thio)-5-chloro-3-(3-(dimethylamino)propyl)quinazolin-4(3H)-one] | –
2 | 3 to 100 | 45 to 1500 | C[C@@H]1OCC2(CCN(c3cnc(Sc4ccc5nc(OC6CCOC6)[nH]c5c4Cl)cn3)CC2)[C@@H]1N (stereo partly drawn) [Example 126, (3S,4S)-8-(5-((7-chloro-2-((tetrahydrofuran-3-yl)oxy)-1H-benzo[d]imidazol-6-yl)thio)pyrazin-2-yl)-3-methyl-2-oxa-8-azaspiro[4,5]decan-4-amine] | –
3 | < 3 | < 45 | N[C@@H]1c2scnc2CC12CCN(c1cnc(Sc3ccc4ncn(CC5CCOCC5)c(=O)c4c3Cl)cn1)CC2 [Example 149] | –
4 | > 100 | > 1500 | Cn1c(N2CCN(CCN)CC2)nc(N)c(Sc2ccnc(Cl)c2Cl)c1=O [Example 193, 6-amino-2-(4-(2-aminoethyl)piperazin-1-yl)-5-((2,3-dichloropyridin-4-yl)thio)-3-methylpyrimidin-4(3H)-one] | –
5 | < 3 | < 45 | N[C@@H]1c2ccccc2CC12CCN(c1cnc(Sc3ccc4ncn(CC5CCOC5)c(=O)c4c3Cl)cn1)CC2 (stereo partly drawn) [Example 103, 6-((5-((S)-1-amino-1,3-dihydrospiro[indene-2,4′-piperidin]-1′-yl]pyrazin-2-yl]thio)-5-chloro-3-((tetrahydrofuran-3-yl)methyl)quinazolin-4(3H)-one] | –
6 | 3 to 100 | 45 to 1500 | C[C@@H]1OCC2(CCN(c3cnc(Sc4ccc5ncn(CCC(N)=O)c(=O)c5c4Cl)cn3)CC2)[C@@H]1N [Example 98, 3-(6-((5-((3S,4S)-4-amino-3-methyl-2-oxa-8-azaspiro[4.5]decan-8-yl)pyrazin-2-yl)thio)-5-chloro-4-oxoquinazolin-3(4H)-yl)propanamide] | –
7 | < 3 | < 45 | COC(C)Cn1cnc2ccc(Sc3ncc(N4CCC5(CC4)Cc4scnc4[C@H]5N)nc3N)c(Cl)c2c1=O (stereo partly drawn) [Example 177] | –
8 | < 3 | < 45 | N[C@@H]1c2cccnc2CC12CCN(c1cnc(Sc3ccc4ncn(CC5(F)COC5)c(=O)c4c3Cl)cn1)CC2 [Example 140, (S)-6-((5-(5-amino-5,7-dihydrospiro[yclopenta[b]pyridine-6,4′-piperidin]-1′-yl)pyrazin-2-yl)thio)-5-chloro-3-((3-fluorooxetan-3-yl)methyl)quinazolin-4(3H)-one] | –
9 | 3 to 100 | 45 to 1500 | CC1(N)CCN(c2cnc(Sc3ccc4ncn(Cc5cccc([N+](=O)[O-])c5)c(=O)c4c3Cl)cn2)CC1 [Example 14, 6-((5-(4-amino-4-methylpiperidin-1-yl)pyrazin-2-yl)thio)-5-chloro-3-(3-nitrobenzyl)quinazolin-4(3H)-one] | –
10 | 3 to 100 | 45 to 1500 | C[C@@H]1OCC2(CCN(c3cnc(Sc4ccc5ncn(CC(C)(C)F)c(=O)c5c4Cl)cn3)CC2)[C@@H]1N [Example 139, 6-((5-((3S,4S)-4-amino-3-methyl-2-oxa-8-azaspiro[4.5]decan-8-yl)pyrazin-2-yl)thio)-5-chloro-3-(2-fluoro-2-methylpropyl)quinazolin-4(3H)-one] | –
11 | > 100 | > 1500 | Cn1c(N2CCN(CCCN)CC2)nc(N)c(Sc2cccc(Cl)c2Cl)c1=O [Example 199, 6-amino-2-(4-(3-aminopropyl)piperazin-1-yl)-5-((2,3-dichlorophenyl)thio)-3-methylpyrimidin-4(3H)-one] | –
12 | > 100 | > 1500 | Cn1c(N2CCN(CC(N)c3ccccc3)CC2)nc(N)c(Sc2cccc(Cl)c2Cl)c1=O (stereo not drawn) [Example 190, 6-amino-2-(4-(2-amino-2-phenylethyl)piperazin-1-yl)-5-((2,3-dichlorophenyl)thio)-3-methylpyrimidin-4(3H)-one] | –
13 | < 3 | < 45 | C[C@@H]1OCC2(CCN(c3cnc(Sc4ccc5ncn(CC6CCOCC6)c(=O)c5c4Cl)cn3)CC2)[C@@H]1N [Example 65, 6-((5-((3S,4S)-4-amino-3-methyl-2-oxa-8-azaspiro[4.5]decan-8-yl)pyrazin-2-yl)thio)-5-chloro-3-((tetrahydro-2H-pyran-4-yl)methyl)quinazolin-4(3H)-one] | –
14 | 3 to 100 | 45 to 1500 | Cn1cnc2ccc(Sc3cnc(N4CCC(C)(CN)CC4)cn3)c(Cl)c2c1=O [Example 15, 6-((5-(4-(aminomethyl)-4-methylpiperidin-1-yl)pyrazin-2-yl)thio)-5-chloro-3-methylquinazolin-4(3H)-one] | –
15 | 3 to 100 | 45 to 1500 | Cn1cc2c(Cl)c(Sc3cnc(N4CCC(C)(N)CC4)cn3)ccc2n1 [Example 25, 1-(5-((4-chloro-2-methyl-2H-indazol-5-yl)thio)pyrazin-2-yl)-4-methylpiperidin-4-amine] | –

The remaining lines, values behind:

Row | SMILES | IC50 (SHP2 (full length)) [nM] | IC50 ([1]; 1.5 h) [nM] | IC50 [1] [nM]
16 | N[C@H]1c2scnc2CC12CCN(c1cnc(Sc3ccc4ncn(CC5CCOCC5)c(=O)c4c3Cl)cn1)CC2 [Example 148, 6-[5-[(6R)-6-aminospiro[4,6-dihydrocyclopenta[d]thiazole-5,4′piperidin]1′-yl]-pyrazin-2-yl]sulfanyl-5-chloro-3-(tetrahydropyran-4-ylmethyl)quinazolin-4-one] | 3 to 100 | 45 to 1500 | –
17 | C[C@@H]1OCC2(CCN(c3cnc(Sc4ccc5ncn(CC6CCCO6)c(=O)c5c4Cl)cn3)CC2)[C@@H]1N (stereo partly drawn) [Example 62, 6-((5-((3S,4S)-4-amino-3-methyl-2-oxa-8-azaspiro[4.5]decan-8-yl)pyrazin-2-yl)thio)-5-chloro-3-((tetrahydrofuran-2-yl)methyl)quinazolin-4(3H)-one] | < 3 | < 45 | –
18 | Cn1c(N2CCN(CC(N)CCc3ccccc3)CC2)nc(N)c(Sc2cccc(Cl)c2Cl)c1=O (stereo not drawn) [Example 189, 6-amino-2-(4-(2-amino-4-phenylbutyl)piperazin-1-yl)-5-((2,3-dichlorophenyl)thio)-3-methylpyrimidin-4(3H)-one] | > 100 | > 1500 | –
19 | CC1(CN)CCN(c2cnc(Sc3ccc4ncn(Cc5ccccc5)c(=O)c4c3Cl)cn2)CC1 [Example 13, 6-((5-(4-(aminomethyl)-4-methylpiperidin-1-yl)pyrazin-2-yl)thio)-3-benzyl-5-chloroquinazolin-4(3H)-one] | 3 to 100 | – | 45 to 1500
20 | COc1ccc(Cn2cnc3ccc(Sc4cnc(N5CCC6(CC5)CO[C@@H](C)[C@H]6N)cn4)c(Cl)c3c2=O)cc1 [Example 41, 6-((5-((3S,4S)-4-amino-3-methyl-2-oxa-8-azaspiro[4.5]decan-8-yl)pyrazin-2-yl)thio)-5-chloro-3-(4-methoxybenzyl)quinazolin-4(3H)-one] | < 3 | < 45 | –
21 | C[C@@H]1OCC2(CCN(c3cnc(Sc4ccc5ncn(Cc6ccncc6)c(=O)c5c4Cl)cn3)CC2)[C@@H]1N [Example 39, 6-((5-((3S,4S)-4-amino-3-methyl-2-oxa-8-azaspiro[4.5]decan-8-yl)pyrazin-2-yl)thio)-5-chloro-3-(pyridin-4-ylmethyl)quinazolin-4(3H)-one] | 3 to 100 | 45 to 1500 | –
22 | COCCn1cnc2ccc(Sc3cnc(N4CCC5(CC4)Cc4ncccc4[C@H]5N)cn3)c(Cl)c2c1=O [Example 108] | 3 to 100 | 45 to 1500 | –
23 | N[C@@H]1c2cccnc2CC12CCN(c1cnc(Sc3ccc4ncn(CCCF)c(=O)c4c3Cl)cn1)CC2 [Example 110] | < 3 | < 45 | –
24 | CC(N)CN1CCN(c2nc(N)c(Sc3cccc(Cl)c3Cl)c(=O)n2C)CC1 (stereo not drawn) [Example 202, 6-amino-2-(4-(2-aminopropyl)piperazin-1-yl)-5-((2,3-dichlorophenyl)thio)-3-methylpyrimidin-4(3H)-one] | > 100 | > 1500 | –
25 | C[C@@H]1OCC2(CCN(c3cnc(Sc4ccc5ncn(CC6=CCOCC6)c(=O)c5c4Cl)cn3)CC2)[C@@H]1N [Example 117, 6-((5-(3S,4S)-4-amino-3-methyl-2-oxa-8-azaspiro[4,5]decan-8-yl)pyrazin-2-yl)thio)-5-chloro-(3-((3,6-dihydro-2H-pyran-4-yl)methyl)quinazolin-4(3H)-one] | 3 to 100 | 45 to 1500 | –
26 | C[C@@H]1OCC2(CCN(c3cnc(Sc4ccc5c(=O)n(Cc6ccccc6)cnc5c4Cl)cn3)CC2)[C@@H]1N [Example 132] | < 3 | < 45 | –
27 | CCOC(=O)c1cccc(Sc2c(N)nc(N3CCC(C)(N)CC3)n(C)c2=O)c1Cl [Example 2, ethyl 3-((4-amino-2-(4-amino-4-methylpiperidin-1-yl)-1-methyl-6-oxo-1,6-dihydropyrimidin-5-yl)thio)-2-chlorobenzoate] | > 100 | – | 45 to 1500
